Patent US10934310B2, “Inhibitors of Bruton's tyrosine kinase and method of their use” (JANSSEN PHARMACEUTICA NV, priority 2015, dated 2021)

Biological target: unphosphorylated-BTK kinase domain (UP-BTK), GST-tagged human BTK (389-659aa) (Homo sapiens (Human), UniProt Q06187)
Test: BTK Kinase Lanthascreen Binding Assay
Settings: Lanthascreen binding, 60 minutes incubation; pIC50 = negative log of the IC50 in molar
Procedure: BTK Kinase Lanthascreen Binding Assay:
A BTK kinase lanthascreen binding assay monitors compound binding to unphosphorylated-BTK kinase domain (UP-BTK), by competing with a fluorescent labeled tracer. […] Data were analyzed using Xlfit™ version 5.3 from ID Business Solutions (Guildford), Microsoft Excel add-in. pIC50 refers to the negative log of the IC50 in molar.

unphosphorylated-BTK kinase domain (UP-BTK), GST-tagged human BTK (389-659aa), sequence (Q06187 389-659): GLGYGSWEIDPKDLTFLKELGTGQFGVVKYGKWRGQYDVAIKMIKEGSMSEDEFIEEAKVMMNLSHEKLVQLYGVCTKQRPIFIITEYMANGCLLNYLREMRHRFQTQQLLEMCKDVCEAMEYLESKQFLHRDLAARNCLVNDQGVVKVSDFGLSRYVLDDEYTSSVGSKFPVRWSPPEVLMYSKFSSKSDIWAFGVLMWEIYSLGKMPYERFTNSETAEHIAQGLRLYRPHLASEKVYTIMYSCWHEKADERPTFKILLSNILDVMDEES

| BTK_I_binding pIC50 | SMILES |
| --- | --- |
| 6.47 | Cc1cc(Oc2ccccc2)ccc1N1C(=O)Nc2c(C(=O)N[C@H]3CCCC[C@H]3N)sc3nccc1c23 (single isomer, unassigned) [Example 450, N-((1S,2R)-2-Aminocyclohexyl)-5-(*S)-(2-methyl-4-phenoxyphenyl)-4-oxo-4,5-dihydro-3H-1-thia-3,5,8-triazaacenaphthylene-2-carboxamide] |
| 5.79 | CC(=O)N[C@H]1CCN(C(=O)c2sc3nccc4c3c2NC(=O)N4c2ccc(Oc3ccccc3)cc2C)C1 [Example 419, (S)—N-(1-(5-(2-Methyl-4-phenoxyphenyl)-4-oxo-4,5-dihydro-3H-1-thia-3,5,8-triazaacenaphthylene-2-carbonyl)pyrrolidin-3-yl)acetamide] |
| 6.66 | CNCC(=O)N[C@@H]1CCCC[C@H]1NC(=O)c1sc2nccc3c2c1NC(=O)N3c1ccc(Oc2ccccc2)cc1C (single isomer, unassigned) [Example 448, 5-(*S)-(2-Methyl-4-phenoxyphenyl)-N-((1R,2R)-2-(2-(methylamino)acetamido)cyclohexyl)-4-oxo-4,5-dihydro-3H-1-thia-3,5,8-triazaacenaphthylene-2-carboxamide] |
| 6.46 | Cc1cc(Oc2cccc(COc3ccccc3C#N)c2)ccc1N1C(=O)Nc2c(NC(=O)C3CC3)sc3nccc1c23 [Example 461, N-(5-(4-(3-((2-Cyanophenoxy)methyl)phenoxy)-2-methylphenyl)-4-oxo-4,5-dihydro-3H-1-thia-3,5,8-triazaacenaphthylen-2-yl)cyclopropanecarboxamide] |
| 6.23 | C=CC(=O)N[C@H]1CCCC[C@H]1NC(=O)c1sc2nccc3c2c1NC(=O)N3c1cnc(OC2CCCC2)cc1C (single isomer, unassigned) [Example 341, N-((1R,2S)-2-Acrylamidocyclohexyl)-5-(*R)-(6-(cyclopentyloxy)-4-methylpyridin-3-yl)-4-oxo-4,5-dihydro-3H-1-thia-3,5,8-triazaacenaphthylene-2-carboxamide] |
| 6.66 | C=CC(=O)N[C@H]1CCC[C@H]1NC(=O)c1sc2nccc3c2c1NC(=O)N3c1ccc(Oc2cncnc2)nc1C [Example 492, N-((1R,2S)-2-Acrylamidocyclopentyl)-5-(2-methyl-6-(pyrimidin-5-yloxy)pyridin-3-yl)-4-oxo-4,5-dihydro-3H-1-thia-3,5,8-triazaacenaphthylene-2-carboxamide] |
| 7.81 | C=CC(=O)N[C@H]1CCC[C@H]1NC(=O)c1sc2nccc3c2c1NC(=O)N3c1ccnc(C2CCC2)c1 [Example 376, N-((1R,2S)-2-Acrylamidocyclopentyl)-5-(2-cyclobutylpyridin-4-yl)-4-oxo-4,5-dihydro-3H-1-thia-3,5,8-triazaacenaphthylene-2-carboxamide] |
| 7.07 | C=CC(=O)N[C@H]1CCC[C@H]1NC(=O)c1sc2nccc3c2c1NC(=O)N3c1ccnc(-c2ccccn2)c1 [Example 325, 5-([2,2′-Bipyridin]-4-yl)-N-((1R,2S)-2-acrylamidocyclopentyl)-4-oxo-4,5-dihydro-3H-1-thia-3,5,8-triazaacenaphthylene-2-carboxamide] |

Same assay, conditions: compound, 50 nM Tracer 236, 2 nM anti-GST antibody, 60 minutes; pIC50 = negative log of the IC50 in molar

| SMILES | BTK_I_binding pIC50 |
| --- | --- |
| N[C@H]1CCCC[C@H]1NC(=O)c1sc2nccc3c2c1NC(=O)N3c1ccc(Oc2ccccc2)c(Cl)c1 [Example 137, N-((1R,2S)-2-Aminocyclohexyl)-5-(3-chloro-4-phenoxyphenyl)-4-oxo-4,5-dihydro-3H-1-thia-3,5,8-triazaacenaphthylene-2-carboxamide] | 7.49 |
| C=CC(=O)N[C@H]1CCCC[C@H]1NC(=O)c1sc2nccc3c2c1NC(=O)N3c1ccc(OC2CCC2)nc1C (single isomer, unassigned) [Example 242, N-((1R,2S)-2-Acrylamidocyclohexyl)-5-(*R)-(6-cyclobutoxy-2-methylpyridin-3-yl)-4-oxo-4,5-dihydro-3H-1-thia-3,5,8-triazaacenaphthylene-2-carboxamide] | 7.04 |
| N[C@H]1CCC[C@H]1NC(=O)c1sc2nccc3c2c1NC(=O)N3c1ccnc(-c2ccccc2)c1 [Example 263, N-((1R,2S)-2-Aminocyclopentyl)-4-oxo-5-(2-phenylpyridin-4-yl)-4,5-dihydro-3H-1-thia-3,5,8-triazaacenaphthylene-2-carboxamide] | 6.38 |
| C=CC(=O)N[C@H]1CCC[C@H]1NC(=O)c1sc2nccc3c2c1NC(=O)N3c1cccc(-c2cccnc2)c1 [Example 202, N-((1R,2S)-2-Acrylamidocyclopentyl)-4-oxo-5-(3-(pyridin-3-yl)phenyl)-4,5-dihydro-3H-1-thia-3,5,8-triazaacenaphthylene-2-carboxamide] | 7.90 |
| C=CC(=O)N[C@H]1CCCC[C@H]1NC(=O)c1sc2nccc3c2c1NC(=O)N3c1ccc(Oc2ccccc2)cc1C (single isomer, unassigned) [Example 108, N-((1R,2S)-2-Acrylamidocyclohexyl)-5-(*S)-(2-methyl-4-phenoxyphenyl)-4-oxo-4,5-dihydro-3H-1-thia-3,5,8-triazaacenaphthylene-2-carboxamide] | 7.56 |
| Cc1cc(Oc2ccccc2)ccc1N1C(=O)Nc2c(C(=O)N[C@H]3CCC[C@H]3O)sc3nccc1c23 [Example 39, N-((1S,2R)-2-Hydroxycyclopentyl)-5-(2-methyl-4-phenoxyphenyl)-4-oxo-4,5-dihydro-3H-1-thia-3,5,8-triazaacenaphthylene-2-carboxamide] | 6.51 |

More lines, now with the values ahead:

| BTK_I_binding pIC50 | SMILES |
| --- | --- |
| 6.44 | Cc1cc(OC(C)C)ccc1N1C(=O)Nc2c(C(=O)N[C@H]3CC[C@@H](NC(=O)/C=C/CN(C)C)C3)sc3nccc1c23 [Example 153, N-((1S,3R)-3-((E)-4-(Dimethylamino)but-2-enamido)cyclopentyl)-5-(4-isopropoxy-2-methylphenyl)-4-oxo-4,5-dihydro-3H-1-thia-3,5,8-triazaacenaphthylene-2-carboxamide] |
| 7.20 | CCC(=O)N[C@H]1CC[C@@H](NC(=O)c2sc3nccc4c3c2NC(=O)N4c2ccc(Oc3ccccc3)cc2C)CC1 [Example 65, 5-(2-Methyl-4-phenoxyphenyl)-4-oxo-N-((1S,4S)-4-propionamidocyclohexyl)-4,5-dihydro-3H-1-thia-3,5,8-triazaacenaphthylene-2-carboxamide] |
| 7.27 | Cc1cc(Oc2ccccc2)ccc1N1C(=O)Nc2c(C(=O)N[C@@H]3CCCC[C@@H]3NC(=O)CN(C)C)sc3nccc1c23 (single isomer, unassigned) [Example 132, N-((1R,2S)-2-(2-(Dimethylamino)acetamido)cyclohexyl)-5-(*S)-(2-methyl-4-phenoxyphenyl)-4-oxo-4,5-dihydro-3H-1-thia-3,5,8-triazaacenaphthylene-2-carboxamide] |
| 6.57 | C=CC(=O)N[C@H]1CC[C@@H](NC(=O)c2sc3nccc4c3c2NC(=O)N4c2ccc(Oc3ccccc3)cc2)C1 [Example 121, N-((1R,3S)-3-Acrylamidocyclopentyl)-4-oxo-5-(4-phenoxyphenyl)-4,5-dihydro-3H-1-thia-3,5,8-triazaacenaphthylene-2-carboxamide] |
| 7.18 | CNCC(=O)N[C@H]1CCC[C@H]1NC(=O)c1sc2nccc3c2c1NC(=O)N3c1ccc(Oc2ccccc2)cc1C (single isomer, unassigned) [Example 122, 5-(*S)-(2-Methyl-4-phenoxyphenyl)-N-((1R,2S)-2-(2-(methylamino)acetamido)cyclopentyl)-4-oxo-4,5-dihydro-3H-1-thia-3,5,8-triazaacenaphthylene-2-carboxamide] |
| 8.13 | C=CC(=O)N[C@H]1CCC[C@H]1NC(=O)c1sc2nccc3c2c1NC(=O)N3c1ccc(Oc2cccnc2)cc1C [Example 199, N-((1R,2S)-2-Acrylamidocyclopentyl)-5-(2-methyl-4-(pyridin-3-yloxy)phenyl)-4-oxo-4,5-dihydro-3H-1-thia-3,5,8-triazaacenaphthylene-2-carboxamide] |
| 6.68 | CC(=O)N[C@H]1CCC[C@H]1NC(=O)c1sc2nccc3c2c1NC(=O)N3c1ccc(Oc2ccccc2)cc1C [Example 37, N-((1R,2S)-2-Acetamidocyclopentyl)-5-(2-methyl-4-phenoxyphenyl)-4-oxo-4,5-dihydro-3H-1-thia-3,5,8-triazaacenaphthylene-2-carboxamide] |

Same assay, conditions: read-out: BTK_I_binding pIC50 (converted)

| SMILES | IC50 |
| --- | --- |
| Cc1nc(Oc2ccccc2)ccc1N1C(=O)Nc2c(C(=O)N[C@H]3CC[C@H](N)C3)sc3nccc1c23 (single isomer, unassigned) [Example 415, N-((1S,3S)-3-Aminocyclopentyl)-5-(*S)-(2-methyl-6-phenoxypyridin-3-yl)-4-oxo-4,5-dihydro-3H-1-thia-3,5,8-triazaacenaphthylene-2-carboxamide] | > 1000 nM |
| CC(C)c1cccc(N2C(=O)Nc3c(C(=O)N[C@@H]4CCC[C@@H]4N)sc4nccc2c34)c1 [Example 455, N-((1R,2S)-2-Aminocyclopentyl)-5-(3-isopropylphenyl)-4-oxo-4,5-dihydro-3H-1-thia-3,5,8-triazaacenaphthylene-2-carboxamide] | > 1000 nM |

Continued, values first:

| IC50 | SMILES |
| --- | --- |
| > 1000 nM | CCC(=O)N[C@@H]1CCC[C@H](NC(=O)c2sc3nccc4c3c2NC(=O)N4c2ccc(Oc3ccccc3)nc2C)C1 (single isomer, unassigned) [Example 412, 5-(*S)-(2-Methyl-6-phenoxypyridin-3-yl)-4-oxo-N-((1S,3R)-3-propionamidocyclohexyl)-4,5-dihydro-3H-1-thia-3,5,8-triazaacenaphthylene-2-carboxamide] |
| > 1000 nM | CC(=O)N[C@H]1CC[C@H](NC(=O)c2sc3nccc4c3c2NC(=O)N4c2ccc(Oc3ccccc3)nc2C)C1 (single isomer, unassigned) [Example 410, N-((1S,3S)-3-Acetamidocyclopentyl)-5-(*S)-(2-methyl-6-phenoxypyridin-3-yl)-4-oxo-4,5-dihydro-3H-1-thia-3,5,8-triazaacenaphthylene-2-carboxamide] |
